Measurements: US20250320246A1, “3-AZASTEROID COMPOUNDS FOR THE TREATMENT OF DISEASES RELATED TO MITROCHONDRIAL FUNCTION” (NZP UK LIMITED, priority 2022, published 2025)

Columns and labels:
[1] = test system: mitochondrial respiratory chain complex I; test: Complex I assay in mouse whole brain homogenate after IV dosing; format: in vivo; settings: wild type mouse, 2 mg/kg IV
Description: Ex vivo mice brain was homogenated in a buffer of 250 mM sucrose, 20 mM HEPES, 3 mM EDTA, pH 7.5 at 4° C. Homogenisation was carried out using a Dounce homogenizer, for cortex samples, and by repetitive passage through a 0.5 mm syringe for isolated striatum. Samples were then incubated with 30 μl of detergent from the AbCam colorimetric Complex I assay kit on ice for 20 minutes. Samples are then centrifuged at 13,000 rpm for 30 mins. Triplicate samples per condition were blocked using the kit blocking buffer on the AbCam colorimetric Complex I assay kit plate for 3 hours. Samples are then washed using the kit wash buffer 3 times before the addition of the kit assay buffer containing NADH and colorimetric dye. The assay plate is read on a plate reader in a kinetic assay programme reading 450 nm in a 30 second interval for 50 minutes.
By 12 hours post injection complex I activity began to reduce again and was elevated by 98% above control. By 24 hours post injection, complex I activity was still elevated by 35% above control levels.

[2] = test system: iNeurons from sPD patients; test: Activated caspase 3 levels (apoptosis) in iNeurons from sPD patients; format: cell-based, human
Description: (§1) The fibroblasts lines and iNPC lines have previously been characterised and published in Carling et al, 2020.
(§2) Briefly, iNPCs are plated in a 6-well plate and cultured for 2 days in DMEM/F-12 medium with Glutamax™ supplemented with 1% NEAA, 2% B27 (Gibco) and 2.5 μM of DAPT. On day 3, DAPT is removed and the medium is supplemented with 1 μM smoothened agonist (SAG) and FGF8 (75 ng/ml) for additional 10 days. Neurons are replated at this stage. Subsequently SAG and FGF8 are withdrawn and replaced with BDNF (30 ng/ml), GDNF (30 ng/ml), TGF-b3 ([…]) and dcAMP (2 mM, Sigma) for 15 days, as previously described Schwartzentruber et al, 2020 and Carling et al, 2020. Dopaminergic neurons were treated with compounds at concentrations of 0.1 nM, 1 nM, 3 nM, 10 nM, 30 nM and 100 nM dosing every 3 days for the last 12 days of differentiation.
(§3) Cells are plated into 96 well plates and fixed using 4% paraformaldehyde for 30 minutes. After PBS washes cells are permeabilised using 0.1% Triton™ X-100 for 10 minutes and blocked using 5% goat serum for 1 hour. Cells are incubated with primary antibodies βIII tubulin (Millipore); activated caspase 3 (Cell Signaling); at 4° C. for 16 hours. Cells are washed using PBS-Tween® and incubated with Alexa Fluor™-conjugated secondary antibodies 488 and 568 (Invitrogen) and Hoescht (Sigma) 1 μM prior to imaging. Imaging was performed using the Opera Phenix™ high content imaging system (Perkin Elmer).

[3] = test system: sporadic Parkinson's disease patient fibroblast lines; test: Mitochondrial respiration (oxygen consumption rate), Seahorse Mito Stress test; format: cell-based, human; settings: 50 nM for 24 hours, sPD fibroblasts
Description: Oxygen consumption rate (OCR) was measured by the Agilent Seahorse Mito Stress test using a 24-well Agilent Seahorse XF analyzer machine (Agilent). Human fibroblasts where plated at a density of 60,000 cells per well. Cells were treated with compound 50 nM for 24 hours prior to measurement. 3 measurements of OCR were taken in each state: basal state, after addition of oligomycin (0.5 μM), FCCP (0.5 μM) and rotenone (1 μM). A cell count was then done on a fixed assay plate using a Hoechst dye (1 μM). Data presented is normalized to cell number.

[4] = test system: iNeurons from sPD patients; test: Neuronal morphology (elongation) in iNeurons from sPD patients; format: cell-based, human
Description: as §1, §2, §3
iNeurons were treated every 3 days for the last 12 days of the differentiation protocol. […] Mitochondrial reactive oxygen species generation was assessed using mitochondrial NpFR2 (probe; a kind gift from Dr Liz New, University of Sydney, Australia) at 20 μM and Hoechst stain solution at 1 μM for 30 mins at 37° C., then the dyes are removed and cells images using Opera Phenix™. Images generated from the live imaging experiments were analysed using Harmony® (Perkin Elmer software). […] We only analysed the z projection images collected from the z stacks.

[5] = test system: iNeurons from sPD patients; test: Mitochondrial reactive oxygen species (ROS) in iNeurons from sPD patients; format: cell-based, human; settings: sPD patient iNeurons treated; untreated sPD patients 115
Description: as §1, §2
iNeurons were treated every 3 days for the last 12 days of the differentiation protocol. Cells are plated in 96 well plates; for live imaging cells are incubated for one hour at 37° C. with 80 nM tetramethlyrhodamine (TMRM), 1 μM LysoTracker® Green (Invitrogen) and Hoechst Stain solution (Sigma) at 1 μM before imaging using Opera Phenix™. Cellular ATP measurements are undertaken using ATPlite kit (Perkin Elmer) as per manufacturer's instructions. Mitochondrial reactive oxygen species generation was assessed using mitochondrial NpFR2 (probe; a kind gift from Dr Liz New, University of Sydney, Australia) at 20 μM and Hoechst stain solution at 1 μM for 30 mins at 37° C., then the dyes are removed and cells images using Opera Phenix™. Images generated from the live imaging experiments were analysed using Harmony® (Perkin Elmer software). We developed protocols in order to segment nucleus, cell boundary and processes, mitochondria, lysosomes, autophagosomes. We only analysed the z projection images collected from the z stacks.

[6] = sPD derived dopaminergic neurons

C[C@H](CCCC(=O)O)[C@H]1CC[C@H]2[C@@H]3[C@@H](O)C[C@@H]4CNCC[C@]4(C)[C@H]3CC[C@]12C.Cl [Compound 28b, 3-Aza-7β-hydroxy-25-homo-5β-cholan-25-oic acid hydrochloride]
complex I activity ([1]; 4 and 8 hours post injection): remained elevated to a similar extent
complex I activity increase ([1]; 1 hour after dosing): 125%
complex I activity elevated above control ([1]; 12 hours post injection): 98%
complex I activity elevated above control levels ([1]; 24 hours post injection): 35%
apoptosis levels (as measured by activated caspase 3 levels), in words [2, 6]: reducing apoptosis levels
Activated caspase 3 levels ([2]; sPD patient iNeurons treated, untreated sPD patients 162): 138 % of level in iNeurons from Controls
basal mitochondrial respiration ([3]; p<0.05, vehicle sPD reduced 30% vs controls): increases basal respiration in the sPD fibroblasts to control levels
ATP linked respiration ([3]; to a lesser extent, vehicle sPD reduced 23% vs controls): Increases are also seen
spare respiratory capacity ([3]; to a lesser extent, vehicle sPD reduced 42% vs controls): Increases are also seen
neuronal morphology, in words [4, 6]: improving neuronal morphology
Neuronal morphology (elongation; % controls) ([4]; sPD patient iNeurons treated, untreated sPD patients 48): 68 % controls
ROS normalisation (% of controls) [5]: 109 % of controls
